# According to publication PMC9851200, “Multiparameter phenotypic screening for endogenous TFEB and TFE3 translocation identifies novel chemical series modulating lysosome function” (Autophagy, 2022):
# Columns and labels:
# Type in all cases: binding
# [1] = target: T1, kinases (KINOMEscan panel) (Homo sapiens, UniProt Q8TDC3); settings: BRSK1; NEW KINOMEscan
# T1 sequence (Q8TDC3 1-778): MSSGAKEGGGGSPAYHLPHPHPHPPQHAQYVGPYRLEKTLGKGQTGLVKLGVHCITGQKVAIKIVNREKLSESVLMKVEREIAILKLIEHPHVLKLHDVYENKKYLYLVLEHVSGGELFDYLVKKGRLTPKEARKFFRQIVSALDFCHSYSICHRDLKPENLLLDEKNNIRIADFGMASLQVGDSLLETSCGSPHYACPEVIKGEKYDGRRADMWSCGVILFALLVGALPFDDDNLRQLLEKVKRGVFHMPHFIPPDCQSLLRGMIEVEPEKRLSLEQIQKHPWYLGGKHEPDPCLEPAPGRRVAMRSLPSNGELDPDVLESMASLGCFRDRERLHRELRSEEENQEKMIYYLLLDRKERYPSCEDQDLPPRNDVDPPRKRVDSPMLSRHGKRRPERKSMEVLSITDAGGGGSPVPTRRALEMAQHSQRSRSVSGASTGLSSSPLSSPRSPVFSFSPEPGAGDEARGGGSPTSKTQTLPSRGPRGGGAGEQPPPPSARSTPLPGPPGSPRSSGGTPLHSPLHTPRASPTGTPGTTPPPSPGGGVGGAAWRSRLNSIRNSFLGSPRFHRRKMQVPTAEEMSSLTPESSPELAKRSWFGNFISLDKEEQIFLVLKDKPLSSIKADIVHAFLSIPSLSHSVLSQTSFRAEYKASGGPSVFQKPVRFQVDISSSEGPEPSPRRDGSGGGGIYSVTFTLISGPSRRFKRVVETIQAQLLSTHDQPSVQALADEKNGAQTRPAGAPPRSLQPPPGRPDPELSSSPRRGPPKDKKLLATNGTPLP
# [2] = target: kinases (KINOMEscan panel) (Homo sapiens, UniProt Q9H1R3); settings: MYLK2; NEW KINOMEscan
# kinases (KINOMEscan panel) (Homo sapiens, UniProt Q9H1R3), sequence (Q9H1R3 whole entry): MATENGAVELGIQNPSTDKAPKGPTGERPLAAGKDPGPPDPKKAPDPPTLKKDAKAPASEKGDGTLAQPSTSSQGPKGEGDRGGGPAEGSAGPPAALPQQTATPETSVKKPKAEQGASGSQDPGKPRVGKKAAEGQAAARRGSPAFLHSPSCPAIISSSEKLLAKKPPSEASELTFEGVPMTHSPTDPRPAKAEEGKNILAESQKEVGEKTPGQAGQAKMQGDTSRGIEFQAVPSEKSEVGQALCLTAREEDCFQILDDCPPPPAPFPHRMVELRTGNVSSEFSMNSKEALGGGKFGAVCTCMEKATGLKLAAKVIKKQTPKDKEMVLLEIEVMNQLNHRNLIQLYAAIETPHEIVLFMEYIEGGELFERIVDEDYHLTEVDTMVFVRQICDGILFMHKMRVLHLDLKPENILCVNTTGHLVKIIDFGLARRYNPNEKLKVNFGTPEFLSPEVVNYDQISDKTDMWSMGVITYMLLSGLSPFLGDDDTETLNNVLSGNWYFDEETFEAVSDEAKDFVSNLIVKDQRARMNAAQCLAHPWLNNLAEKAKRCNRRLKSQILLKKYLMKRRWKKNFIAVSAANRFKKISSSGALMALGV
# [3] = target: kinases (KINOMEscan panel) (Homo sapiens, UniProt Q9UM73, L1196M); settings: kinase ALK(L1196M); NEW KINOMEscan
# [4] = target: T2, kinases (KINOMEscan panel) (Homo sapiens, UniProt P41743); settings: PRKCI; NEW KINOMEscan
# T2 sequence (P41743 1-596): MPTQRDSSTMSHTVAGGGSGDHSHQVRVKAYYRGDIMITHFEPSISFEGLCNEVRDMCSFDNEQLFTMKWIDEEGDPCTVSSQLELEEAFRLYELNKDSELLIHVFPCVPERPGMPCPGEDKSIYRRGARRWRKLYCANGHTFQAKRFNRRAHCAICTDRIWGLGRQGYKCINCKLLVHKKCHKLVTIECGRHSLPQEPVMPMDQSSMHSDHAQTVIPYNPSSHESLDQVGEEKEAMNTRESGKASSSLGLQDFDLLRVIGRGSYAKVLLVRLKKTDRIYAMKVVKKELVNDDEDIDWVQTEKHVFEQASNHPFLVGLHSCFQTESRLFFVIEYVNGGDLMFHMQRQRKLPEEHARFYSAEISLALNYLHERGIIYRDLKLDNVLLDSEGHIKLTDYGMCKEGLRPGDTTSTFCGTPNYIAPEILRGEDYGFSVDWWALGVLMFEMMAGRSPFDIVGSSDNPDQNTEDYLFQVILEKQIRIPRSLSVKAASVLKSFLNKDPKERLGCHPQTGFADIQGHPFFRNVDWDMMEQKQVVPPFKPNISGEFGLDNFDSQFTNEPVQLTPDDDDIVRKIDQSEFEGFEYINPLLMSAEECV
# [5] = target: kinases (KINOMEscan panel) (Homo sapiens, UniProt Q04759); settings: kinase PRKCQ; NEW KINOMEscan
# [6] = target: kinases (KINOMEscan panel) (Homo sapiens, UniProt P00533, T790M); settings: kinase EGFR(T790M); NEW KINOMEscan
# kinases (KINOMEscan panel) (Homo sapiens, UniProt P00533, T790M), sequence (P00533 25-1210 T790M): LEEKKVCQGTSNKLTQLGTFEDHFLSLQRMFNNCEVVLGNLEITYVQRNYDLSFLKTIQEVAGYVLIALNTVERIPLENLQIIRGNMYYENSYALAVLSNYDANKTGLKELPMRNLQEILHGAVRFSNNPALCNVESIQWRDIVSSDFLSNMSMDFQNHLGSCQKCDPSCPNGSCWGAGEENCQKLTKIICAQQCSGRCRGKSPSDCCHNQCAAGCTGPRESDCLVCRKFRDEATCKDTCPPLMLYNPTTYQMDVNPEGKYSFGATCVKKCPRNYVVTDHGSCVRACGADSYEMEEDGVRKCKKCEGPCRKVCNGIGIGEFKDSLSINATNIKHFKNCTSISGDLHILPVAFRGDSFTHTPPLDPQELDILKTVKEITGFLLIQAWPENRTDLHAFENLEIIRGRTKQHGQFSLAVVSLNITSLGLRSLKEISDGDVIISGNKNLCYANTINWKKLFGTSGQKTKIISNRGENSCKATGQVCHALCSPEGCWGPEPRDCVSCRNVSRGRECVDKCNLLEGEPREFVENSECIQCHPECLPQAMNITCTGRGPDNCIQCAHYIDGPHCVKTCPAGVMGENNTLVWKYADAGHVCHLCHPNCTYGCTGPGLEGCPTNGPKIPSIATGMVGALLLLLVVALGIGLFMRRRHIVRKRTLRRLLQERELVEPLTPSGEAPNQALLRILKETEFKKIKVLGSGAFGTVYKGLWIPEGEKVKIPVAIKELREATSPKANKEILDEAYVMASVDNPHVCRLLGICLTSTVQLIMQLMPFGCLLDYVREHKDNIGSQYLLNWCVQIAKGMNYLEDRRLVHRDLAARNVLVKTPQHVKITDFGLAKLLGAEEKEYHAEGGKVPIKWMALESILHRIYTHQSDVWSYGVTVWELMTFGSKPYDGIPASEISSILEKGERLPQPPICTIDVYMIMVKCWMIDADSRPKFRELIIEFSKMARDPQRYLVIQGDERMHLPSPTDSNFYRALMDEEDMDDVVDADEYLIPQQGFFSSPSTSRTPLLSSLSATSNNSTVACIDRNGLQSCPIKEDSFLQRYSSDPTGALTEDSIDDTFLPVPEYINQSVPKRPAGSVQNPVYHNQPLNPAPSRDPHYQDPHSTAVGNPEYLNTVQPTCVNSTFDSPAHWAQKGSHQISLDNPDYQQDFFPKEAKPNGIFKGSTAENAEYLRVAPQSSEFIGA
# [7] = target: kinases (KINOMEscan panel) (Homo sapiens, UniProt P42336, I800L); settings: kinase PIK3CA(I800L); NEW KINOMEscan
# [8] = target: kinases (KINOMEscan panel) (Homo sapiens, UniProt P08631); settings: kinase HCK; NEW KINOMEscan
# [9] = target: kinases (KINOMEscan panel) (Homo sapiens, UniProt P00519, H396P); settings: NEW KINOMEscan
# [10] = target: kinases (KINOMEscan panel) (Homo sapiens, UniProt Q86V86); settings: kinase PIM3; NEW KINOMEscan
# [11] = target: kinases (KINOMEscan panel) (Homo sapiens, UniProt Q02779); settings: kinase MAP3K10; NEW KINOMEscan
# kinases (KINOMEscan panel) (Homo sapiens, UniProt Q02779), sequence (Q02779 whole entry): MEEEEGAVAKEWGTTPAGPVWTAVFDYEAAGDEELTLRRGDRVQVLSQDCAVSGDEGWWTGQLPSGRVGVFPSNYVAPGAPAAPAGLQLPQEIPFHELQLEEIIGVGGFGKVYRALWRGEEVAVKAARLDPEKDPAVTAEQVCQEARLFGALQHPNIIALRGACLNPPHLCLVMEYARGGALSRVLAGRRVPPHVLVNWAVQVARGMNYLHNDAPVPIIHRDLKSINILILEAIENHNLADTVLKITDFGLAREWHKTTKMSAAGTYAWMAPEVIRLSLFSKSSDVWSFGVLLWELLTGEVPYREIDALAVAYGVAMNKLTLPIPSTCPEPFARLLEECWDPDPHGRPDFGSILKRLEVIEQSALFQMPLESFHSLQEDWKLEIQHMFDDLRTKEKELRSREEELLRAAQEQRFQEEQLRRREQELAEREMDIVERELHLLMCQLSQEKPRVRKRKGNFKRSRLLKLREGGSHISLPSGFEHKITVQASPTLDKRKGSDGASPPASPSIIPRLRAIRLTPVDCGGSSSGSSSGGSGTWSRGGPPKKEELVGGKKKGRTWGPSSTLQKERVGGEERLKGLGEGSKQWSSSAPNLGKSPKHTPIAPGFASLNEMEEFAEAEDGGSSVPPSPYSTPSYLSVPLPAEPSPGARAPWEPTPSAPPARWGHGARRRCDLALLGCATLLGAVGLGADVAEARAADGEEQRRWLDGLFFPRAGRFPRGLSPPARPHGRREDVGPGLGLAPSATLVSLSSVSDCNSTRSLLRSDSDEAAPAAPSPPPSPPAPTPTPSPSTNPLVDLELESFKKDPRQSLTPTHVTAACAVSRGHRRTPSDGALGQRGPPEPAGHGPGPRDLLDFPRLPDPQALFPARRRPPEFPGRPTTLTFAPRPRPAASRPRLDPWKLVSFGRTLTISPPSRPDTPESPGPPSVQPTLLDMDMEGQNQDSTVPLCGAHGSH
# [12] = target: kinases (KINOMEscan panel) (Homo sapiens, UniProt P29376); settings: LTK; NEW KINOMEscan
# [13] = target: T3, kinases (KINOMEscan panel) (Homo sapiens, UniProt P51955); settings: kinase NEK2; NEW KINOMEscan
# T3 sequence (P51955 1-445): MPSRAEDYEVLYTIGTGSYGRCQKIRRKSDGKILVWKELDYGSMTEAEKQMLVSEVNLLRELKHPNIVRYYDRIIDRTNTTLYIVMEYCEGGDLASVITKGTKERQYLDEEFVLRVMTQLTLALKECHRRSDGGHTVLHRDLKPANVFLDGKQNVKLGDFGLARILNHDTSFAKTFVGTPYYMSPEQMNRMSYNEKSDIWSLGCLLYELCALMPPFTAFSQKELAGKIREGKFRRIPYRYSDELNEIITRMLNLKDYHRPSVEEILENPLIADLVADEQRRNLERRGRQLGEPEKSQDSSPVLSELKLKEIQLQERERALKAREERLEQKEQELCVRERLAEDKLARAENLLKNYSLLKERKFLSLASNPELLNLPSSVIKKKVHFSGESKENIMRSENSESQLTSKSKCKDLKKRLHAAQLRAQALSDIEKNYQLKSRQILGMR
# [14] = target: kinases (KINOMEscan panel) (Homo sapiens, UniProt O00750); settings: PIK3C2B; NEW KINOMEscan
# kinases (KINOMEscan panel) (Homo sapiens, UniProt O00750), sequence (O00750 whole entry): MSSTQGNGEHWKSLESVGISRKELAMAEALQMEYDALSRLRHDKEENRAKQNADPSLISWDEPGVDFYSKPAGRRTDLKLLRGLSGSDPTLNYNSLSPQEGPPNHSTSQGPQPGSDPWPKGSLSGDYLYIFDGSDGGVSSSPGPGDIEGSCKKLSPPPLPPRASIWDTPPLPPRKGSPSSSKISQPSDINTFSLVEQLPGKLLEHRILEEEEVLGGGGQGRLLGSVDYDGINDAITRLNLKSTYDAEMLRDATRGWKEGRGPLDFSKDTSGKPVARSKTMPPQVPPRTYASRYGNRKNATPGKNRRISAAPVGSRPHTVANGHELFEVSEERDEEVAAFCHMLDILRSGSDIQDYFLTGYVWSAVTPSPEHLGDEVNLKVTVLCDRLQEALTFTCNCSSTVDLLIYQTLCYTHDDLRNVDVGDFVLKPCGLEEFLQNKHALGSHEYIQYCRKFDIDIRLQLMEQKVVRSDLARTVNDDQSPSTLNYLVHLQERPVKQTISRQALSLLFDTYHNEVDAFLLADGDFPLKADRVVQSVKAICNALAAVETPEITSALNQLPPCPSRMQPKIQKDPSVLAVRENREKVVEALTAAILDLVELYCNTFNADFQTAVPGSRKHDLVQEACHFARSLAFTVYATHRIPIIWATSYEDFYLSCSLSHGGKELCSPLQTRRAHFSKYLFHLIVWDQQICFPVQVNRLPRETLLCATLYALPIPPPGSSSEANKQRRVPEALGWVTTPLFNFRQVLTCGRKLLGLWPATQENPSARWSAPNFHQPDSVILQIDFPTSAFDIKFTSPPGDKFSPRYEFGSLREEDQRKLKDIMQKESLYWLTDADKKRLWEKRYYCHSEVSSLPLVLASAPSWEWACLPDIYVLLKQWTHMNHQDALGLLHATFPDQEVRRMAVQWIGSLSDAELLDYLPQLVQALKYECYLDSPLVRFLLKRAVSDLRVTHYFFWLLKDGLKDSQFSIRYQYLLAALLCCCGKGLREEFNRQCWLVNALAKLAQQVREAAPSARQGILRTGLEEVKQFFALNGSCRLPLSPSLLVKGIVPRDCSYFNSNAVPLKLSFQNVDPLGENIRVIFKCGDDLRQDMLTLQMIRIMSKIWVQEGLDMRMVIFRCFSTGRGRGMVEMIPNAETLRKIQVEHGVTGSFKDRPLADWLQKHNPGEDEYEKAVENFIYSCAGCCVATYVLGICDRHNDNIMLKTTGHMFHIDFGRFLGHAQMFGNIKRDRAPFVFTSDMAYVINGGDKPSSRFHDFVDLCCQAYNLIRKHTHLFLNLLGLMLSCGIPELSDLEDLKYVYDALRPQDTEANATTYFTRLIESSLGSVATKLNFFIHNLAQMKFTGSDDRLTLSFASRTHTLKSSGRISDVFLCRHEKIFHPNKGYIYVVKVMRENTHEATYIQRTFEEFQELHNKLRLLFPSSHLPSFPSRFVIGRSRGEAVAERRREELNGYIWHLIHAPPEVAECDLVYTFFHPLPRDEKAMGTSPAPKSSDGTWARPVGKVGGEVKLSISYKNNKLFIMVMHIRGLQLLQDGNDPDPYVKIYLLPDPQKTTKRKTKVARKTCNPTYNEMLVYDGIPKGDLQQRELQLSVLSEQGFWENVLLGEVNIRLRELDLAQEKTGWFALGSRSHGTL
# [15] = target: kinases (KINOMEscan panel) (Homo sapiens, UniProt Q8TDX7); settings: NEK7; NEW KINOMEscan
# kinases (KINOMEscan panel) (Homo sapiens, UniProt Q8TDX7), sequence (Q8TDX7 whole entry): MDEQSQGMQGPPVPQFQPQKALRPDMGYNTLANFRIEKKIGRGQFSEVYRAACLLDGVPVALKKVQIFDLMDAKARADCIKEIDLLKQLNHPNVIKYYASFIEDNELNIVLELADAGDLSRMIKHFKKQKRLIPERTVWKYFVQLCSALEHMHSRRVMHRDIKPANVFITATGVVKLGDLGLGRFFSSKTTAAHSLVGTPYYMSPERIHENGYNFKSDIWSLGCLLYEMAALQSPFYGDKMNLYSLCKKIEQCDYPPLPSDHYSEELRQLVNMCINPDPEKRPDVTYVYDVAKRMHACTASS
SMILES,KINOMEscan BRSK1 [1],KINOMEscan MYLK2 [2],KINOMEscan ALK(L1196M) [3],KINOMEscan PRKCI [4],KINOMEscan PRKCQ [5],KINOMEscan EGFR(T790M) [6],KINOMEscan PIK3CA(I800L) [7],KINOMEscan HCK [8],KINOMEscan ABL1(H396P)-nonphosphorylated [9],KINOMEscan ABL1(H396P)-phosphorylated [9],KINOMEscan PIM3 [10],KINOMEscan MAP3K10 [11],KINOMEscan LTK [12],KINOMEscan NEK2 [13],KINOMEscan PIK3C2B [14],KINOMEscan NEK7 [15]
Cc1cccc(-c2nc(Nc3ccc4nn(C)cc4c3)c3ccccc3n2)n1 [NK167],0,0,0,0,0,0,0,14,4,0,0,13,6,0,0,0
Cc1cccc(-c2nc(N(C)c3ccc4ncsc4c3)c3ccccc3n2)n1 [NK-161],0,9,0,0,7,0,0,16,0,0,0,1,14,1,0,0
